The values that follow come from ChEMBL document CHEMBL1147999, “Caffeoylglycolic and caffeoylamino acid derivatives, halfmers of L-chicoric acid, as new HIV-1 integrase inhibitors” (Eur J Med Chem, 2007).

SMILES strings stand for the structures. Active and inactive are the calls of the source. The calls are words filed in the database; no cut-off is given here.

Chain of Human immunodeficiency virus type 1 integrase (Q7ZJM1 whole entry): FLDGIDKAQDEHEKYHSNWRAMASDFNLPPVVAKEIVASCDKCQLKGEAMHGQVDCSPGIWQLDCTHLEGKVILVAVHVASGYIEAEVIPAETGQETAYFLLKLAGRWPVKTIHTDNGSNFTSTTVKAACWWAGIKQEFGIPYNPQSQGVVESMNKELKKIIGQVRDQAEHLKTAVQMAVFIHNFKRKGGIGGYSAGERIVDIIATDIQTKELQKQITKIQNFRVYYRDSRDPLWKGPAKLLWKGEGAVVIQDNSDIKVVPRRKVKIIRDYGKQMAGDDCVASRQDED

For the first assay, the system named is Human immunodeficiency virus 1. In words: Antiviral activity against HIV1 3B in MT4 cells at 200 uM. The assay is classed as functional, organism-based.
Details: not given
Turning to `O=C(/C=C/c1ccc(O)c(O)c1)NC(Cc1ccc(O)c(O)c1)C(=O)O` (centres undefined), the result was inactive.
Take `CC(OC(=O)/C=C/c1ccc(O)c(O)c1)C(=O)O` (centres undefined): the outcome was inactive.

Staying with this assay, now noted: Human immunodeficiency virus 1, 3B.
For the compound `O=C(/C=C/c1ccc(O)c(O)c1)O[C@H](C(=O)O)[C@@H](OC(=O)/C=C/c1ccc(O)c(O)c1)C(=O)O`, the CC50 (as a rule, the concentration at which the toxic effect on the cells reaches its halfway point) was over 42.2 µM and a half-maximal response (EC50) required 7.5 µM.

Another assay concerns the target Human immunodeficiency virus type 1 integrase (Human immunodeficiency virus 1, UniProt Q7ZJM1). In words: Inhibition of recombinant HIV1 integrase expressed in Escherichia coli.
Details: not given
For `CC(NC(=O)/C=C/c1ccc(O)c(O)c1)C(=O)O` (centres undefined), the IC50 – broadly, the concentration that inhibits the measured activity by half – turned out to be 148 µM.
In the case of `O=C(O)COC(=O)/C=C/c1ccc(O)c(O)c1`, the IC50 was determined as 10.5 µM.
Take `COc1ccc(/C=C/C(=O)OCC(=O)O)cc1OC`: the IC50 was over 300 µM.
`O=C(/C=C/c1ccc(O)c(O)c1)NC(Cc1ccc(O)c(O)c1)C(=O)O` (centres undefined): the IC50 was determined as 12 µM.
`O=C(/C=C/c1ccc(O)c(O)c1)NC(Cc1ccccc1)C(=O)O` (centres undefined): the IC50 came out at 95 µM.
Take `COc1cc(/C=C/C(=O)OCC(=O)O)ccc1O`: the IC50 is over 300 µM.
On to `O=C(O)CNC(=O)/C=C/c1ccc(O)c(O)c1`, for which the IC50 is 172 µM.
Still for that read-out and setting: for `CC(C)CC(NC(=O)/C=C/c1ccc(O)c(O)c1)C(=O)O` (centres undefined) the value was 130 µM; for `O=C(/C=C/c1ccc(O)c(O)c1)NC(Cc1ccc(O)cc1)C(=O)O` (centres undefined), 129 µM; for `CC(OC(=O)/C=C/c1ccc(O)c(O)c1)C(=O)O` (centres undefined), 128 µM.
